Assay results published in patent US9873724B2, “Pro-angiogenic peptides and peptide conjugates” (Yissum Research Development Company of the Hebrew …, priority 2013, dated 2018).
“And” between values parts separate entries of the source, which are not always exact repeats. Identical values can stand only once. Square brackets hold non-standard residues; d marks the D form. Ends that are not written are not given here. * marks the point of attachment. fluorescein = fluorescein moiety coupled to a lysine residue (K-Flu); Tyr(3,5-I2) = N[C@@H](Cc1cc(I)c(O)c(I)c1)C(=O)O; Phe(4-Br) = N[C@@H](Cc1ccc(Br)cc1)C(=O)O; hArg = N=C(N)NCCCC[C@H](N)C(=O)O; Myristoyl = CCCCCCCCCCCCCC(=O)*; Lauroyl = CCCCCCCCCCCC(=O)*; Decanoyl = CCCCCCCCCC(=O)*; Nle = CCCC[C@H](N)C(=O)O; Octanoyl = CCCCCCCC(=O)*; Hexanoyl = CCCCCC(=O)*

Tests used:
mouse aortic rings = assay: Aortic ring assay ex-vivo (capillary sprouting from mouse aortic rings in collagen; repeated with VEGF); format: cell-based; set-up: Capillary length 10 μM (10 μM) / Capillary length 20 μM / Capillary length 10 μM: unit not given here; settings: for Capillary length 10 μM (10 μM) / Capillary length 10 μM: peptide 10 μM; for Capillary length 10 μM (10 μM) / Capillary length 20 μM / Capillary length 10 μM: rings fixed after two weeks; for Capillary length 20 μM: peptide 20 μM; for effect of peptide together with VEGF (in words): 10 μM peptide with VEGF; for Average capillary length / Fold vs vehicle: 10 μM peptide, alone or together with VEGF; for capillary / vessel formation (in words): aortic ring assay, FIGS. 1A-1C and 2A-2C; for Fold vs vehicle: capillary length
Procedure: Thoracic aortas were dissected from 7- to 8-week-old male SABRA mice. The aortas were immediately transferred to Petri dishes containing BIO-MPM-1. The adventitia and small vessels around the aorta were carefully removed under a dissecting microscope, and transverse cuts of 0.75 mm were made. The resulting aortic rings were extensively rinsed and incubated overnight in BIO-MPM-1 containing penicillin-streptomycin. Subsequently, the rings were embedded in 50 μl collagen mix (7 parts collagen, 1 part 10× Eagle minimal essential medium, MEM, and 2 parts 0.15 M sodium bicarbonate) in 96-well plates (Nunc, Rochester, N.Y.). Solidification of the collagen solution was achieved by raising the pH to neutral and the temperature to 37° C. 150 μl BIO-MPM-1 containing penicillin-streptomycin and the tested factors or peptides) was added to the embedded rings, and the plates were incubated at 37° C. in a humidified 10% CO2 atmosphere. Medium containing factors and/or peptides was refreshed at days 4 and 8. After two weeks, the rings were fixed with 4% formaldehyde for 24 hours, followed by staining with crystal violet (0.02%) dissolved in ethanol and extensive washing to remove excessive stain. The effect of factors and peptides was examined in 4 wells (4 rings of mouse aortic rings) per assay. Micrographs of representative rings were taken using a digital camera (Nikon, Tokyo, Japan). Morphometric analysis of sprouting was performed manually using Image-Pro 4.5 software (Media Cybernetics, Silver Spring, Md.) according to Nissanov et al. (Lab Invest. 1995; 73:734-739). Nonstained rings were subjected to paraffin sections and hematoxylin and eosin (H&E) staining.
FIGS. 1A-1C represents aortic ring capillary length and FIGS. 2A-2C aortic ring capillary width. In the table: K-Flu is a Lysine residue coupled with a fluorescein moiety, 4BrPhe is 4-bromo-Phenylalanine, Dod is Dodecanoyl, Dec designates Decanoyl, Oct is Octanoyl, and Hex is Hexanoyl.
The aortic ring assay was repeated in the presence of 10 μM concentration of peptides AB-033 (SEQ ID NO: 13) and AB-034 (SEQ ID NO: 14) together with the pro-angiogenetic protein VEGF.

[1] = tested on: Mice/Balb/c, hind limb ischemia model; assay: Mouse hind limb ischemia/angiogenesis model; format: in vivo; settings: 20 mg/kg IP twice weekly
From the text: The object of this study was to determine whether administration of the test items, peptides AB-017 (SEQ ID NO: 12) and 725-106 (positive control, SEQ ID NO: 2) can enhance angiogenesis, subsequently inducing clinical and motor function improvement in a hind limb ischemia model. The principle of the test is based on changes in perfusion rate, clinical signs and histological parameters (necrosis) following administration of the test compounds.
Each tested group included 4-7 mice per group. Intraperitoneal (i.p) injection is the preferred route of administration of the test items in this model and DMSO/PEG is used as vehicle to prepare the test item solution.
Tested peptides were dissolved in 100% DMSO. Thereafter Polyethylene glycol (PEG) 400 is added to the solution. Sterile water was used to dilute to a final concentration of 0.5% DMSO/10% PEG 400/H2O to result 2 mg/ml. The solution is prepared and divided into marked aliquots and stored at −70° C.
Species/Strain: Mice/Balb/c male˜8 weeks
Animals were housed under standard laboratory conditions, air conditioned and filtered (HEPA F6/6) with adequate fresh air supply (31 air changes/hour). Animals were kept in a climate controlled environment. Temperatures range is between 20-24° C. and RH is between 30-70% with 12 hours light and 12 hours dark cycle. Animals were housed in polyethylene cages (7/cage) measuring 35×30×15 cm, with stainless steel top grill facilitating pelleted food and drinking water in plastic bottle; bedding: steam sterilized clean paddy husk. Bedding material is changed along with the cage at least twice a week. Diet: Animals are fed ad libitum a commercial rodent diet (Teklad Certified Global 18% Protein Diet cat #: 106S8216). Animals have free access to drinking water obtained from the municipality supply. Surgical Procedure: Anesthesia: Isoflurane 1.5-3% in a mixture of O2/N2O, under spontaneous respiration. All four limbs of the animal were taped down in order to facilitate the animal for surgery. Both hind legs of the animals are shaved and disinfected. On the operated leg, the right leg in all animals, an incision was made from the inguinal area to the proximity of the knee. The femoral vein/artery/nerve were exposed. The artery is dissected free from the vein, nerve and surrounding fascia. Distal to its bifurcation with the profound femoral artery, using 6-0 silk suture the artery is ligated twice, and thereafter transected between these two points (see prox-A-group model appendix I). The surgical wound is closed with 6-0 silk and the mouse is returned to its cage. The left leg is untreated control in all animals. Exclusion criteria: Only mice, whose mean flux measurement post surgery is […] and ≦50% of the pre surgical measurement, are incorporated into the study. Mice whose mean flux measurement post surgery out of this range were excluded from the study.
[formula] Drug administration: All animals were dosed by IP administration at a dose volume of 10 ml/kg.
Tests and Evaluation: Body weight: Body weights were measured prior to surgery, prior to each dosing, and prior to necropsy. Blood flow measurement: Using a Laser Doppler apparatus (Perimed PeriScan PIM II System, Technical manual available at test facility) Blood flow was measured (operated leg & control leg) while the legs are in their natural resting position at the following time points: Before surgery (after shaving) & Post surgery (Day 0); Day 1; Day 8; Day 15; Day 22; and Day 29. Each time point for each mouse consists of three measurements. Blood flow was measured, additionally, in first 10 animals at Pre before shaving. […]

| Substance | Capillary length 10 μM (10 μM) (mouse aortic rings) | Capillary length 20 μM (mouse aortic rings) | Capillary length 10 μM (mouse aortic rings) | also measured |
| --- | --- | --- | --- | --- |
| 725-106: Previously disclosed EDG3 peptide, positive control; Table 2: Myr-Gly, Nle, Arg, Pro, Tyr, Asn, Ala, NH2 (Myristoyl-G[Nle]RPYNA-NH2; SMILES CCCCCCCCCCCCCC(=O)NCC(=O)N[C@@H](CCCC)C(=O)N[C@@H](CCCNC(=N)N)C(=O)N1CCC[C@H]1C(=O)N[C@@H](Cc1ccc(O)cc1)C(=O)N[C@@H](CC(N)=O)C(=O)N[C@@H](C)C(N)=O) [Peptide 725-106, reference compound] | 7,000 | 4,600 |  | Functional evaluation at day 15 (individual mouse) ([1]; function score 0 (flexing the toes) to 3 (dragging of foot), one value per mouse): 3.0; Hind limb ischemia evaluation at day 15, Average ([1]; group average of ischemic score): 2.4; Hind limb ischemia evaluation at day 15 (individual mouse) ([1]; ischemic score 0 (absence of necrosis) to 4 (total hind-limb loss), one value per mouse, listed as 106): 2.0 (2×) and 3.0 and 2.5 |
| AB-011: Table 2: Myr-Gly, Nle, Arg, Pro, Tyr, Asn, Ala, K-Flu (lysine coupled with fluorescein), NH2 (Myristoyl-G[Nle]RPYNAK(fluorescein)-NH2) | 2500 | 5000 |  |  |
| AB-013: Table 2: Myr-Gly, Nle, Arg, Pro, Tyr, Asn, DAla, NH2 (Myristoyl-G[Nle]RPYN[dA]-NH2; SMILES CCCCCCCCCCCCCC(=O)NCC(=O)N[C@@H](CCCC)C(=O)N[C@@H](CCCNC(=N)N)C(=O)N1CCC[C@H]1C(=O)N[C@@H](Cc1ccc(O)cc1)C(=O)N[C@@H](CC(N)=O)C(=O)N[C@H](C)C(N)=O) | 8700 | 900 |  |  |
| AB-015: Table 2: Acetyl-Gly-, Arg, Pro, Tyr, NH2 (Ac-GRPY-NH2) | 1,000 | 1,700 |  |  |
| AB-018: Table 2: Myr-Gly, Nle, Arg, Pro, Tyr, Asn, NH2 (Myristoyl-G[Nle]RPYN-NH2; SMILES CCCCCCCCCCCCCC(=O)NCC(=O)N[C@@H](CCCC)C(=O)N[C@@H](CCCNC(=N)N)C(=O)N1CCC[C@H]1C(=O)N[C@@H](Cc1ccc(O)cc1)C(=O)N[C@@H](CC(N)=O)C(N)=O) | 12,600 | 10,200 |  |  |
| AB-020: Table 2: Dod-Gly (Dodecanoyl), Nle, Arg, Pro, Tyr (Lauroyl-G[Nle]RPY) | 1,900 | 2,700 | 5,600 |  |
| AB-021: Table 2: Dec-Gly (Decanoyl), Nle, Arg, Pro, Tyr (Decanoyl-G[Nle]RPY) | 590 | 3,200 | 3,940 |  |
| AB-022: Table 2: Oct-Gly (Octanoyl), Nle, Arg, Pro, Tyr (Octanoyl-G[Nle]RPY) | 380 | 1,700 | 2,170 |  |
| AB-023: Table 2: Hex-Gly (Hexanoyl), Nle, Arg, Pro, Tyr (Hexanoyl-G[Nle]RPY) | 430 | 320 | 1,700 |  |
| AB-031: Table 2: Myr-Gly, Nle, Arg, Pro, 4BrPhe (Myristoyl-G[Nle]RP[Phe(4-Br)]) |  |  | 1,840 |  |
| Myr-Gly-Arg-Pro-Tyr-NH2 (Myristoyl-GRPY-NH2; SMILES CCCCCCCCCCCCCC(=O)NCC(=O)N[C@@H](CCCNC(=N)N)C(=O)N1CCC[C@H]1C(=O)N[C@@H](Cc1ccc(O)cc1)C(N)=O) [AB-016] | 8,700 | 14,500 |  |  |
| Myr-Gly-Nle-Arg-Pro-35dITyr-NH2 (Myristoyl-G[Nle]RP[Tyr(3,5-I2)]-NH2; SMILES CCCCCCCCCCCCCC(=O)NCC(=O)N[C@@H](CCCC)C(=O)N[C@@H](CCCNC(=N)N)C(=O)N1CCC[C@H]1C(=O)N[C@@H](Cc1cc(I)c(O)c(I)c1)C(N)=O) [AB-033] | 3,570 | 3,800 |  | effect of peptide together with VEGF (in words) (mouse aortic rings): synergistic effect; Average capillary length (mouse aortic rings): 4941; capillary / vessel formation (in words) (mouse aortic rings): induce massive capillary formation; Fold vs vehicle (mouse aortic rings): 3.6 |
| Myr-Gly-Nle-hArg-Pro-Tyr-NH2 (Myristoyl-G[Nle][hArg]PY-NH2; SMILES CCCCCCCCCCCCCC(=O)NCC(=O)N[C@@H](CCCC)C(=O)N[C@@H](CCCCNC(=N)N)C(=O)N1CCC[C@H]1C(=O)N[C@@H](Cc1ccc(O)cc1)C(N)=O) [AB-034] | 9,570 | 10,780 | 9,700 | effect of peptide together with VEGF (in words) (mouse aortic rings): synergistic effect; Average capillary length (mouse aortic rings): 3062; capillary / vessel formation (in words) (mouse aortic rings): induce massive capillary formation; Fold vs vehicle (mouse aortic rings): 2.2 |
| VEGF |  |  |  | Average capillary length (mouse aortic rings): 3221; Fold vs vehicle (mouse aortic rings): 2.4 |
